# Test results: patent US8592594B2, “Tetrahydro-quinoline derivatives” (Hoffmann-La Roche Inc., priority 2010, dated 2013)
# Tested on: recombinant AMPK proteins (α1β1γ1, α2β1γ1, α1(1-335), α1(1-394) or α2(1-394))
# Experiment: Scintillation Proximity Assay (SPA), AMPK activation
# Assay type: biochemical, human
# Conditions: effective concentration of activator for 50% of maximal enzyme activity; 50 nM AMPK, 2 μM ATP, 2 μM biotin-SAMS, 30° C., 2 hours
# Protocol: Recombinant human AMPK α1β1γ1, α2β1γ1 or AMPK α subunit truncations α1(1-335), α1(1-394) and α2(1-394) were constructed, expressed and purified as described previously (Pang, T., Zhang, Z. S., Gu, M., Qiu, B. Y., Yu, L. F., Cao, P. R., Shao, W., Su, M. B., Li, J. Y., Nan, F. J., and Li, J. (2008). Rat liver AMPK heterotrimer enzyme was obtained from Upstate (Billerica, Mass., U.S.A.).
# Scintillation Proximity Assay
# Before the Scintillation Proximity Assay (SPA) assay, 200 nM recombinant AMPK proteins (α1β1γ1, α2β1γ1, α1(1-335), α1(1-394) or α2(1-394)) were fully phosphorylated as described previously (Pang et al., 2008). SPA reactions were performed in 96-well plates at a final volume of 50 μL containing 20 mM Tris-HCl pH 7.5, 5 mM MgCl2, 1 mM DTT, 2 μM biotin-SAMS, 2 μM ATP, 0.2 μCi/well [γ-^33P]ATP, and various amount of activator. Reactions were initiated by the addition of 50 nM recombinant AMPK proteins to the reaction solutions and incubated at 30° C. for 2 hours. After that, reactions were terminated by the addition of 40 μL stop solution containing 80 μg streptavidin-coated SPA beads per well, 50 mM ED TA, 0.1% Triton X-100 in PBS, pH 7.5 and incubated for 1 hour. Finally, a 160 μL suspension solution containing 2.4 M CsCl, 50 mM EDTA, and 0.1% Triton X-100 in PBS (pH 7.5) was added to the reaction solution to suspend SPA beads completely. SPA signals were determined with a Wallac MicroBeta plate counter (PerkinElmer) 30 min later for calculation of the amount of product formed. The amount of products formed in 2 hour was plotted against activator concentrations to determine the effective concentration of the activator (EC50) required for 50% of maximal enzyme activity.
row,EC50,SMILES
1,2.07 µM,"Cc1ccc(F)cc1C1CC2(CC2)c2cc(C(=O)O)ccc2N1 (centres unmarked) [Example 1, 2-(5-Fluoro-2-methyl-phenyl)-spiro(cyclopropane-1,4′-1′,2′,3′,4′-tetrahydroquinoline)-6-carboxylic acid]"
2,3.21 µM,"O=C(O)c1ccc2c(c1)C1(CC1)CC(c1cc(Br)ccc1F)N2 (centres unmarked) [Example 2, 2-(5-Bromo-2-fluoro-phenyl)-spiro(cyclopropane-1,4′-1′,2′,3′,4′-tetrahydroquinoline)-6-carboxylic acid]"
3,6.12 µM,"O=C(O)c1ccc2c(c1)C1(CC1)CC(c1cc(Cl)ccc1Cl)N2 (centres unmarked) [Example 3, 2-(2,5-Dichloro-phenyl)-spiro(cyclopropane-1,4′-1′,2′,3′,4′-tetrahydroquinoline)-6-carboxylic acid]"
4,13.2 µM,"O=C(O)c1ccc2c(c1)C1(CC1)CC(c1cc(Cl)cc(Cl)c1)N2 (centres unmarked) [Example 4, 2-(3,5-Dichloro-phenyl)-spiro(cyclopropane-1,4′-1′,2′,3′,4′-tetrahydroquinoline)-6-carboxylic acid]"
5,1.24 µM,"O=C(O)c1ccc2c(c1)C1(CC1)CC(c1cc(Cl)ccc1F)N2 (centres unmarked) [Example 5, 2-(5-Chloro-2-fluoro-phenyl)-spiro(cyclopropane-1,4′-1′,2′,3′,4′-tetrahydroquinoline)-6-carboxylic acid]"
6,7.41 µM,"CS(=O)(=O)c1cccc(C2CC3(CC3)c3cc(C(=O)O)ccc3N2)c1 (centres unmarked) [Example 6, 2-(3-Methanesulfonyl-phenyl)-spiro(cyclopropane-1,4′-1′,2′,3′,4′-tetrahydroquinoline)-6-carboxylic acid]"
7,2.29 µM,"O=C(O)c1ccc2c(c1)C1(CC1)CC(c1cc(F)ccc1Br)N2 (centres unmarked) [Example 7, 2-(2-Bromo-5-fluoro-phenyl)-spiro(cyclopropane-1,4′-1′,2′,3′,4′-tetrahydroquinoline)-6-carboxylic acid]"
8,4.44 µM,"O=C(O)c1ccc2c(c1)C1(CC1)CC(c1cccc(F)c1)N2 (centres unmarked) [Example 8, 2-(3-Fluoro-phenyl)-spiro(cyclopropane-1,4′-1′,2′,3′,4′-tetrahydroquinoline)-6-carboxylic acid]"
9,1.68 µM,"O=C(O)c1ccc2c(c1)C1(CCCCC1)CC(c1cc(F)ccc1Br)N2 (centres unmarked) [Example 9, 2-(2-Bromo-5-fluoro-phenyl)-spiro(cyclohexane-1,4′-1′,2′,3′,4′-tetrahydroquinoline)-6-carboxylic acid]"
10,3.48 µM,"O=C(O)c1ccc2c(c1)C1(CCCC1)CC(c1cc(F)ccc1Br)N2 (centres unmarked) [Example 10, 2-(2-Bromo-5-fluoro-phenyl)-spiro(cyclopentane-1,4′-1′,2′,3′,4′-tetrahydroquinoline)-6-carboxylic acid]"
11,4.96 µM,"CS(=O)(=O)c1ccc(F)cc1C1CC2(CC2)c2cc(C(=O)O)ccc2N1 (centres unmarked) [Example 11, 2-(5-Fluoro-2-methanesulfonyl-phenyl)-spiro(cyclopropane-1,4′-1′,2′,3′,4′-tetrahydroquinoline)-6-carboxylic acid]"
12,5.92 µM,"CS(=O)(=O)c1ccc(S(C)(=O)=O)c(C2CC3(CC3)c3cc(C(=O)O)ccc3N2)c1 (centres unmarked) [Example 12, 2-(2,5-Dimethanesulfonyl-phenyl)-spiro(cyclopropane-1,4′-1′,2′,3′,4′-tetrahydroquinoline)-6-carboxylic acid]"
13,2.63 µM,"CN(C)C(=O)N1c2ccc(C(=O)O)cc2C2(CC2)CC1c1cc(Cl)ccc1Cl (centres unmarked) [Example 13, 2-(2,5-Dichloro-phenyl)-1-dimethylcarbamoyl-spiro(cyclopropane-1,4′-1′,2′,3′,4′-tetrahydroquinoline)-6-carboxylic acid]"
14,3.76 µM,"O=C(O)c1ccc2c(c1)C1(CC1)CC(c1cc(Cl)ccc1Cl)N2Cc1ccccc1 (centres unmarked) [Example 14, 1-Benzyl-2-(2,5-dichloro-phenyl)-spiro(cyclopropane-1,4′-1′,2′,3′,4′-tetrahydroquinoline)-6-carboxylic acid]"
15,7.6 µM,"CC1(C)CC(c2cc(Cl)ccc2Cl)Nc2ccc(C(=O)O)cc21 (centres unmarked) [Example 15, 2-(2,5-Dichloro-phenyl)-4,4-dimethyl-1,2,3,4-tetrahydro-quinoline-6-carboxylic acid]"
16,8.61 µM,"CC1(C)CC(C(C)(C)c2ccccc2)Nc2ccc(C(=O)O)cc21 (centres unmarked) [Example 16, 4,4-Dimethyl-2-(1-methyl-1-phenyl-ethyl)-1,2,3,4-tetrahydro-quinoline-6-carboxylic acid]"

row,EC50,SMILES
1,4.54 µM,"CC1(C)CC(c2cc(Cl)ccc2F)Nc2cc(Cl)c(C(=O)O)cc21 (centres unmarked) [Example 17, 7-Chloro-2-(5-chloro-2-fluoro-phenyl)-4,4-dimethyl-1,2,3,4-tetrahydro-quinoline-6-carboxylic acid]"
2,4.58 µM,"CC1(C)CC(c2cc(Cl)ccc2F)Nc2ccc(CC(=O)O)cc21 (centres unmarked) [Example 18, [2-(5-Chloro-2-fluoro-phenyl)-4,4-dimethyl-1,2,3,4-tetrahydro-quinolin-6-yl]-acetic acid]"
3,2.13 µM,"C=CC1(C)CC(c2ccc(F)c(Cl)c2)Nc2ccc(C(=O)O)cc21 (centres unmarked) [Example 19, 2-(3-Chloro-4-fluoro-phenyl)-4-methyl-4-vinyl-1,2,3,4-tetrahydro-quinoline-6-carboxylic acid]"
4,3.31 µM,"CC1(c2ccccc2)CC(c2ccc(F)c(Cl)c2)Nc2ccc(C(=O)O)cc21 (centres unmarked) [Example 20, 2-(3-Chloro-4-fluoro-phenyl)-4-methyl-4-phenyl-1,2,3,4-tetrahydro-quinoline-6-carboxylic acid]"
5,5.35 µM,"CC1(C)CC(c2cccc(N3CCOCC3)c2)Nc2ccc(C(=O)O)cc21 (centres unmarked) [Example 22, 4,4-Dimethyl-2-(3-morpholin-4-yl-phenyl)-1,2,3,4-tetrahydro-quinoline-6-carboxylic acid]"
6,7.02 µM,"CC(C)N1CCN(c2cccc(C3CC(C)(C)c4cc(C(=O)O)ccc4N3)c2)CC1 (centres unmarked) [Example 23, 2-[3-(4-Isopropyl-piperazin-1-yl)-phenyl]-4,4-dimethyl-1,2,3,4-tetrahydro-quinoline-6-carboxylic acid]"
7,4.83 µM,"C=CC1(C)CC(c2ccc(F)c(Cl)c2)Nc2ccc(C(=O)O)nc21 (centres unmarked) [Example 25, 6-(3-Chloro-4-fluoro-phenyl)-8-methyl-8-vinyl-5,6,7,8-tetrahydro-[1,5]naphthyridine-2-carboxylic acid]"
8,2.1 µM,"CCC1(C)CC(c2ccc(F)c(Cl)c2)Nc2ccc(C(=O)O)nc21 (centres unmarked) [Example 26, 6-(3-Chloro-4-fluoro-phenyl)-8-ethyl-8-methyl-5,6,7,8-tetrahydro-[1,5]naphthyridine-2-carboxylic acid]"
9,1.49 µM,"CCC1(C)CC(c2ccc(F)c(Cl)c2)N(CCC(C)C)c2ccc(C(=O)O)nc21 (centres unmarked) [Example 27, 6-(3-Chloro-4-fluoro-phenyl)-8-ethyl-8-methyl-5-(3-methyl-butyl)-5,6,7,8-tetrahydro-[1,5]naphthyridine-2-carboxylic acid]"
10,11.4 µM,"Cc1ccc(F)cc1C1CC2(CC2)c2cc(C(=O)NC3CCC3)ccc2N1 (centres unmarked) [Example 28, 2-(5-Fluoro-2-methyl-phenyl)-spiro(cyclopropane-1,4′-1′,2′,3′,4′-tetrahydroquinoline)-6-carboxylic acid cyclobutylamide]"
11,2.47 µM,"Cc1ccc(F)cc1C1CC2(CC2)c2cc(C(=O)N3CCOCC3)ccc2N1 (centres unmarked) [Example 30, [2-(5-Fluoro-2-methyl-phenyl)-spiro(cyclopropane-1,4′-1′,2′,3′,4′-tetrahydroquinolin)-6-yl]-morpholin-4-yl-methanone]"
12,2.58 µM,"Cc1ccc(F)cc1C1CC2(CC2)c2cc(C(=O)N3CCN(C)CC3)ccc2N1 (centres unmarked) [Example 31, [2-(5-Fluoro-2-methyl-phenyl)-spiro(cyclopropane-1,4′-1′,2′,3′,4′-tetrahydroquinolin)-6-yl]-(4-methyl-piperazin-1-yl)-methanone]"
13,1.24 µM,"O=C(c1ccc2c(c1)C1(CC1)CC(c1cc(F)ccc1Br)N2)N1CCOCC1 (centres unmarked) [Example 32, [2-(2-Bromo-5-fluoro-phenyl)-spiro(cyclopropane-1,4′-1′,2′,3′,4′-tetrahydroquinolin)-6-yl]-morpholin-4-yl-methanone]"
14,13.6 µM,"CC(C)NC(=O)c1ccc2c(c1)C1(CC1)CC(c1cc(F)ccc1Br)N2 (centres unmarked) [Example 33, 2-(2-Bromo-5-fluoro-phenyl)-spiro(cyclopropane-1,4′-1′,2′,3′,4′-tetrahydroquinoline)-6-carboxylic acid isopropylamide]"
15,2.71 µM,"CN(C)C(=O)c1ccc2c(c1)C1(CC1)CC(c1cc(F)ccc1Br)N2 (centres unmarked) [Example 34, 2-(2-Bromo-5-fluoro-phenyl)-spiro(cyclopropane-1,4′-1′,2′,3′,4′-tetrahydroquinoline)-6-carboxylic acid dimethylamide]"
16,6.88 µM,"O=C(NC1CCC1)c1ccc2c(c1)C1(CC1)CC(c1cc(F)ccc1Br)N2 (centres unmarked) [Example 35, 2-(2-Bromo-5-fluoro-phenyl)-spiro(cyclopropane-1,4′-1′,2′,3′,4′-tetrahydroquinoline)-6-carboxylic acid cyclobutylamide]"
